In patent US11345694B2, “Antibacterial compounds” (DISCUVA LTD., priority 2017, dated 2022) one finds MIC and IC50 data, which are given here for 1 compound.

Broadly, the MIC is the lowest concentration that inhibits growth of the organism. Lower therefore signals inhibition by little substance. As usually defined, the IC50 is the concentration needed to halve the response being measured.

In brackets after ≈: the same amount, converted by molar mass. Some results are limits rather than exact numbers.

Assay [1] has as its system Serratia marcescens SL1344 (Sm). Briefly: MIC broth microdilution. The format is cell-based. Put shortly:
(§1)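 Broth microdilution following CLSI M07-A10, two-fold serial compound dilutions spanning 0.39-200 μM final, DMSO at most 2% final, in cation-adjusted Müller-Hinton broth at 37° C., ambient air. MIC taken as lowest concentration inhibiting growth after 20-24 h incubation.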
(In general: In broth dilution the organism is exposed to a series of concentrations in liquid medium.)

The test system of assay [2] is Escherichia coli K12 (EC). Briefly: MIC broth microdilution. The format is cell-based. Put shortly: as §1
The subject of assay [3] is Salmonella typhimurium XNAA5 (St). Briefly: MIC broth microdilution. The format is cell-based. Conditions: Salmonella enterica. Summed up:
as §1

Assay [4] has as its system Acinetobacter baumannii ATCC 17978 (AB). Briefly: MIC broth microdilution. Conditions: ATCC17978. Type of assay: cell-based. Put shortly: as §1
The test system of assay [5] is Staphylococcus aureus ATCC 35556 (SA). Briefly: MIC broth microdilution. Type of assay: cell-based. The following applies: ATCC35556. Summed up:
as §1

Assay [6] deals with Enterobacter cloacae DSM 30054 (Ed). Briefly: MIC broth microdilution. Conditions: DSM30054. The format is cell-based. Put shortly:
(§2)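 CLSI broth microdilution with two-fold compound series, 0.39-200 μM final, at most 2% DMSO. Strains grown in cation-adjusted Müller-Hinton broth at 37 °C, ambient air. MIC taken as lowest concentration inhibiting growth after 20-24 h.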

In assay [7] the test system is Klebsiella pneumoniae ATCC 10031 (KP2). Briefly: MIC broth microdilution. Type of assay: cell-based. The following applies: ATCC10031. Summed up:
as §2

Assay [8] relates to Pseudomonas aeruginosa ATCC 33359 (PA). Briefly: MIC broth microdilution. The format is cell-based. The following applies: ATCC33359. Put shortly: as §1
In assay [9] the test system is K. pneumoniae H154300688 (KP9). Briefly: MIC broth microdilution. The following applies: Klebsiella pneumoniae. The format is cell-based, Klebsiella pneumoniae. Put shortly: as §2
Assay [10] concerns K. pneumoniae H154600588 (KP8). Briefly: MIC broth microdilution. Type of assay: cell-based, Klebsiella pneumoniae. The following applies: Klebsiella pneumoniae. Put shortly:
as §2

The subject of assay [11] is K. pneumoniae H151440671 (KP10). Briefly: MIC broth microdilution. The following applies: Klebsiella pneumoniae. The format is cell-based, Klebsiella pneumoniae. Summed up: as §2
The subject of assay [12] is K. pneumoniae ATCC 700603 (KP3). Briefly: MIC broth microdilution. Type of assay: cell-based, Klebsiella pneumoniae. Conditions: Klebsiella pneumoniae, ATCC700603. Summed up:
as §2

In assay [13] the test system is K. pneumoniae H154680676 (KP5). Briefly: MIC broth microdilution. The format is cell-based, Klebsiella pneumoniae. The following applies: Klebsiella pneumoniae. Put shortly: as §2
Assay [14] relates to K. pneumoniae H154020667 (KP6). Briefly: MIC broth microdilution. Type of assay: cell-based, Klebsiella pneumoniae. Conditions: Klebsiella pneumoniae. Summed up:
as §2

Assay [15] has as its system K. pneumoniae NCTC 13438 (KP1). Briefly: MIC broth microdilution. The format is cell-based, Klebsiella pneumoniae. The following applies: Klebsiella pneumoniae, NCTC13438. Put shortly: as §2
The subject of assay [16] is K. pneumoniae H154640784 (KP7). Briefly: MIC broth microdilution. The format is cell-based, Klebsiella pneumoniae. Conditions: Klebsiella pneumoniae. Summed up:
as §2

Assay [17] has as its system human hepatocarcinoma cell line ATCC HB-8065 (HepG2). Briefly: Human cell viability (CellTiter-Glo). The following applies: Homo sapiens; HepG2 cells, 24 h incubation, CellTiter-Glo luminescence, 0.2-100 μM; read-out: IC50 values against the HepG2 cell line. The format is cell-based. Summed up:
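Cytotoxicity was read as CellTiter-Glo luminescence after 24 h compound exposure at 37° C., 5% CO2. Final concentrations spanned 0.2-100 μM in two-fold steps, in 1% FBS MEM with 1% DMSO, on cells plated a day earlier at 20,000/well. IC50 came from 4-parameter logistic regression.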
On the technique in general: Cellular ATP, detected with luciferase, serves as a proxy for viable cell number.

Assay [18] has as its system E. coli NCTC 13441 (UPEC). Briefly: MIC broth microdilution. Conditions: Escherichia coli, NCTC13441. The format is cell-based, Escherichia coli. Summed up: as §1

Regarding `Cc1cc(-c2[nH]c(N)nc2-c2ccc(OCc3ccc(F)cc3)nc2)ccn1` [Example 28, 4-(6-((4-Fluorobenzyl)oxy)pyridin-3-yl)-5-(2-methylpyridin-4-yl)-1H-imidazol-2-amine], the MIC is ≤ 1 µM in assay [1]; ≤ 1 µM in assay [2]; ≤ 1 µM in assay [3]; > 100 µM in assay [4]; > 100 µM in [5]; ≤ 1 µM in assay [6]. In addition, the MIC is ≤ 1 µM in assay [7]; > 100 µM in assay [8]; ≤ 1 µM in assay [9]; 1 to 10 µM (≈ 0.375 to 3.75 µg/mL) in assay [10]; ≤ 1 µM in assay [11]; 1 to 10 µM (≈ 0.375 to 3.75 µg/mL) in [12]. In addition, the MIC in [13] was ≤ 1 µM; in [14], ≤ 1 µM; in assay [15] it was 1 to 10 µM (≈ 0.375 to 3.75 µg/mL); in [16] it was 1 to 10 µM (≈ 0.375 to 3.75 µg/mL); in assay [18] it was ≤ 1 µM. In assay [17], the IC50 is 25 to 100 µM.
